According to patent US20230220021A1, “CYCLIC PEPTIDE INHIBITORS OF PSD-95 AND USES THEREOF” (University of Copenhagen, priority 2020, published 2023):
Where a SMILES comes first, the peptide text is derived from it. [ ]: non-standard residue; d: D form.

Tests used:
[1] = target: T1, PSD-95-PDZ2 (Homo sapiens, UniProt P78352, V178C); assay: SPOT peptide array screening with TAMRA labelled PSD-95-PDZ2; type: binding; details: SPOT array, TAMRA labelled PSD-95-PDZ2-V178C, normalized to WT
T1 construct: screened with the TAMRA labelled PSD-95-PDZ2-V178C domain; 7xHis (N); made in house
Experimental: SPOT peptide array synthesis. To generate the cyclic nNOSβ-hairpin arrays, we used the Intavis MultiPep spotter (Intavis Bioanalytical instruments). The membranes employed in this assay were SynthoPlan APEG CE (standard amino-modified acid stable sellulose membrane with a PEG-spacer), 10×15 cm with a loading of 400 nmol cm^−2. Solutions of 0.3 M Fmoc-AA-OH and 0.3 M Oxyma Pure were prepared in N-methyl-2-pyrrolidone (NMP). The activator solution consisted of 0.3 M DIC and 0.3 M of 2,4,6-trimethylpyridine (Collidine) in NMP. The capping solution consisted of a solution of 1 M acetic anhydride and 0.05 M of 4-dimethylaminopyridine (DMAP) in NMP. The deprotection solution consisted of 20% piperidine in NMP. AA couplings were performed 1 h,4 times. Deprotection of the Fmoc groups was performed 15min,2 times. Membrane washing between couplings or deprotections was performed with NMP and ethanol. Elongation of peptides in cellulose membrane was started by coupling first the Fmoc-PEG(9)-OH (Iris Biotech) and the subsequent mixture of Fmoc-Gly-OH (25%) and Boc-Gly-OH (75%) to lower the total loading of the membrane. Afterwards, the resin was capped with the capping solution and extensively washed and soaked in bromophenol blue (BPB) as a quality control to reveal the SPOTS with a functional amino group. Then, we coupled the quasi-orthogonal group Fmoc-Glu-PP, and carried out the rest of the synthesis until peptide completion. The cellulose bound linear peptides were finally treated with a solution of 95% DCM, 3% TIPS and 2% TFA 3 times, 20 min. to remove the quasi-orthogonal group. Afterwards, the membrane was washed 5 times with DCM and neutralized with 5% DIPEA in DCM. The membrane was then washed 5 more times with DCM, 5 times with NMP and cyclized with 0.3M PyAOP and 0.3M of DIPEA in DMF for 3 h or overnight. Finally, the membrane was dried with DCM and the side-chain protecting groups were cleaved with the standard deprotection cocktail (95% TFA, 2.5% H2O and 2.5% TIPS) or with reagent K [TFA 82.5%, phenol 5%, H2O 5%, thioanisole 5% and 1,2-ethanedithiol (EDT) 2.5%] for 3 h.
SPOT membrane screening. Membranes were incubated with PBS pH 7.2+0.5% bovine serum albumin (BSA) for 1 h. After the incubation period, the membrane was dried and scanned with an Amershan Typhoon scanner, at 400V, Cy3 wavelength (532 nm). A TIF file of the screening and a file with the blank values were generated using the Image Quant software. Afterwards, a solution of 50 nM of TAMRA labelled PSD-95-PDZ2 domain was prepared in PBS pH 7.2+0.5% BSA and was added to the membrane. The membrane was left incubating in a Polymax 1040 rocking table for 1 h protected from the light. Passed the incubation time, the excess of labelled protein was removed by washing the membrane 3 times with PBS+0.5% BSA. Finally, the membrane fluorescence values were measured with the Amershan Typhoon scanner at 400V, Cy3 wavelength (532 nm). Using the Image Quant software, the TIF image of the screening and a file with the fluorescence values of the peptides with the TAMRA labelled PSD-95-PDZ2 were generated. The blank was then subtracted from the fluorescence values of the peptides screened against the TAMRA labelled PSD-95-PDZ2.
A deep mutational scan was performed on the WT scaffold, exchanging each AA to the remaining 19 L-AAs. Each array contained three copies of the individual peptides as technical replicates. Additionally, three controls were included in the design: the cyclic nNOS β-hairpin WT control (positive control), a linear nNOS peptide (cyclization control) and a cyclic nNOS β-hairpin with a F111V substitution (negative control previously tested in FP competition assays). For array screening, a mutation in PSD-95-PDZ2 residue V178 (PSD-95-PDZ2-V178C) was introduced, which was subsequently labelled with TAMRA maleimide. […]

[2] = target: T2, PSD-95-PDZ2 (Homo sapiens, UniProt P78352); assay: Fluorescence polarization (FP) competition assay against cyclic nNOS TAMRA probe; type: binding; details: for Ki: FP competition, cyclic nNOS TAMRA probe, mean of triplicates, N.B. = not binding, read-out: Ki; for Relative Ki (Ki mut/Ki WT): FP inhibition constant normalized to WT value
T2 construct: 7xHis (N); made in house; host or cells: Escherichia coli B21 pLys (for the mutants, 'as previously described')
Experimental: Fluorescence polarization (FP). FP assays were performed in a 384-well plate format. Fluorescence polarization was measured using a Safire 2 plate reader. The instrument Z-factor was optimized for each assay. The G-factor was calibrated to an initial milli polarization value of 20. The wavelength for the cyclic nNOS β-hairpin TAMRA probe was: ex: 530 nm and em: 580 nm. Every measurement was performed in NaPI 50 mM, 50 mM NaCl and 1% BSA at pH 7.2, 25° C. […] The curves were done in triplicates. Then, the polarization was fitted into a one-site binding model using Prism software 8.0 (GraphPad), from which the Kd can be measured. […] The mili polarization (mP) values were plotted as a function of peptide concentration and fitted to a sigmoidal dose-response curve using Prism software 8.0 (GraphPad). The Ki values were calculated according to Nikolovska-Coleska Z. et al.^40-41

Row | SMILES | Normalized SPOT fluorescence (Mut/WT) [1] | Ki [2] | Relative Ki (Ki mut/Ki WT) [2]
1 | CC[C@H](C)[C@@H]1NC(=O)[C@H]([C@@H](C)O)NC(=O)[C@H](CCCCN)NC(=O)[C@@H]2CCCN2C(=O)[C@H]([C@@H](C)O)NC(=O)[C@H](C)NC(=O)[C@H](CC(=O)O)NC(=O)CNC(=O)[C@H]([C@@H](C)O)NC(=O)[C@H](Cc2ccccc2)NC(=O)[C@H]([C@@H](C)O)NC(=O)[C@H]([C@@H](C)O)NC(=O)[C@H](CCC(=O)O)NC(=O)[C@H](CC(C)C)NC(=O)[C@H](Cc2c[nH]cn2)NC(=O)[C@H]([C@@H](C)O)NC(=O)[C@H](CCC(N)=O)NC(=O)CNC(=O)[C@H]2CCCN2C(=O)[C@H](CCC(N)=O)NC(=O)[C@H]([C@@H](C)O)NC(=O)[C@H](C(C)C)NC(=O)[C@H](CCCNC(=N)N)NC1=O [compound 65] (cyclo(THLETTFTGDATPKTIRVTQ[dP]GQ)) | 1.34 | 410 nM | 0.27
2 | CC[C@H](C)[C@@H]1NC(=O)[C@H]([C@@H](C)O)NC(=O)[C@H](CCCCN)NC(=O)[C@H](C)NC(=O)[C@H]([C@@H](C)O)NC(=O)CNC(=O)[C@H](CC(=O)O)NC(=O)CNC(=O)[C@H]([C@@H](C)O)NC(=O)[C@H](Cc2ccccc2)NC(=O)[C@H]([C@@H](C)O)NC(=O)[C@H]([C@@H](C)O)NC(=O)[C@H](CCC(=O)O)NC(=O)[C@H](CC(C)C)NC(=O)[C@H](Cc2c[nH]cn2)NC(=O)[C@H]([C@@H](C)O)NC(=O)[C@H](CCC(N)=O)NC(=O)CNC(=O)[C@H]2CCCN2C(=O)[C@H](CCC(N)=O)NC(=O)[C@H]([C@@H](C)O)NC(=O)[C@H](C(C)C)NC(=O)[C@H](CCCNC(=N)N)NC1=O [compound 67] (cyclo(THLETTFTGDGTAKTIRVTQ[dP]GQ)) | 0.93 | – | 1.07
3 | CC[C@H](C)[C@@H]1NC(=O)[C@H]([C@@H](C)O)NC(=O)[C@H](CCCCN)NC(=O)[C@@H]2CCCN2C(=O)[C@H]([C@@H](C)O)NC(=O)CNC(=O)[C@H](CC(=O)O)NC(=O)CNC(=O)[C@H]([C@@H](C)O)NC(=O)[C@H](Cc2ccccc2)NC(=O)[C@H](CC(=O)O)NC(=O)[C@H]([C@@H](C)O)NC(=O)[C@H](CCC(=O)O)NC(=O)[C@H](CC(C)C)NC(=O)[C@H](Cc2c[nH]cn2)NC(=O)[C@H]([C@@H](C)O)NC(=O)[C@H](CCC(N)=O)NC(=O)CNC(=O)[C@H]2CCCN2C(=O)[C@H](CCC(N)=O)NC(=O)[C@H]([C@@H](C)O)NC(=O)[C@H](C(C)C)NC(=O)[C@H](CCCNC(=N)N)NC1=O [compound 54] (cyclo(THLETDFTGDGTPKTIRVTQ[dP]GQ)) | 0.16 | 1420 nM | 0.95
4 | CC[C@H](C)[C@@H]1NC(=O)[C@H]([C@@H](C)O)NC(=O)[C@H](CCCCN)NC(=O)[C@@H]2CCCN2C(=O)[C@H]([C@@H](C)O)NC(=O)CNC(=O)[C@H](CC(=O)O)NC(=O)CNC(=O)[C@H]([C@@H](C)O)NC(=O)[C@H](Cc2ccccc2)NC(=O)[C@H]([C@@H](C)O)NC(=O)[C@H]([C@@H](C)O)NC(=O)[C@H](C)NC(=O)[C@H](CC(C)C)NC(=O)[C@H](Cc2c[nH]cn2)NC(=O)[C@H]([C@@H](C)O)NC(=O)[C@H](CCC(N)=O)NC(=O)CNC(=O)[C@H]2CCCN2C(=O)[C@H](CCC(N)=O)NC(=O)[C@H]([C@@H](C)O)NC(=O)[C@H](C(C)C)NC(=O)[C@H](CCCNC(=N)N)NC1=O [compound 58] (cyclo(THLATTFTGDGTPKTIRVTQ[dP]GQ)) | 0.15 | – | 14.11
5 | CC(C)C[C@@H]1NC(=O)[C@H](Cc2c[nH]cn2)NC(=O)[C@H]([C@@H](C)O)NC(=O)[C@H](CCC(N)=O)NC(=O)CNC(=O)[C@H]2CCCN2C(=O)[C@H](CCC(N)=O)NC(=O)[C@H]([C@@H](C)O)NC(=O)[C@H](C(C)C)NC(=O)[C@H](CCCNC(=N)N)NC(=O)[C@H](C)NC(=O)[C@H]([C@@H](C)O)NC(=O)[C@H](CCCCN)NC(=O)[C@@H]2CCCN2C(=O)[C@H]([C@@H](C)O)NC(=O)CNC(=O)[C@H](CC(=O)O)NC(=O)CNC(=O)[C@H]([C@@H](C)O)NC(=O)[C@H](Cc2ccccc2)NC(=O)[C@H]([C@@H](C)O)NC(=O)[C@H]([C@@H](C)O)NC(=O)[C@H](CCC(=O)O)NC1=O [compound 70] (cyclo(THLETTFTGDGTPKTARVTQ[dP]GQ)) | 0.06 | 1760 nM | 1.17
6 | CC[C@H](C)[C@@H]1NC(=O)[C@H]([C@@H](C)O)NC(=O)[C@H](CCCCN)NC(=O)[C@@H]2CCCN2C(=O)[C@H](CC(=O)O)NC(=O)CNC(=O)[C@H](CC(=O)O)NC(=O)CNC(=O)[C@H]([C@@H](C)O)NC(=O)[C@H](Cc2ccccc2)NC(=O)[C@H]([C@@H](C)O)NC(=O)[C@H]([C@@H](C)O)NC(=O)[C@H](CCC(=O)O)NC(=O)[C@H](CC(C)C)NC(=O)[C@H](Cc2c[nH]cn2)NC(=O)[C@H]([C@@H](C)O)NC(=O)[C@H](CCC(N)=O)NC(=O)CNC(=O)[C@H]2CCCN2C(=O)[C@H](CCC(N)=O)NC(=O)[C@H]([C@@H](C)O)NC(=O)[C@H](C(C)C)NC(=O)[C@H](CCCNC(=N)N)NC1=O [compound 32] (cyclo(THLETTFTGDGDPKTIRVTQ[dP]GQ)) | 1.85 | 480 nM | 0.32
7 | CC[C@H](C)[C@@H]1NC(=O)[C@H]([C@@H](C)O)NC(=O)[C@H](CCCCN)NC(=O)[C@@H]2CCCN2C(=O)[C@H]([C@@H](C)O)NC(=O)CNC(=O)[C@H](CC(=O)O)NC(=O)CNC(=O)[C@H]([C@@H](C)O)NC(=O)[C@H](Cc2ccccc2)NC(=O)[C@H](C)NC(=O)[C@H]([C@@H](C)O)NC(=O)[C@H](CCC(=O)O)NC(=O)[C@H](CC(C)C)NC(=O)[C@H](Cc2c[nH]cn2)NC(=O)[C@H]([C@@H](C)O)NC(=O)[C@H](CCC(N)=O)NC(=O)CNC(=O)[C@H]2CCCN2C(=O)[C@H](CCC(N)=O)NC(=O)[C@H]([C@@H](C)O)NC(=O)[C@H](C(C)C)NC(=O)[C@H](CCCNC(=N)N)NC1=O [compound 60] (cyclo(THLETAFTGDGTPKTIRVTQ[dP]GQ)) | 0.66 | – | 2.62
8 | CC[C@H](C)[C@@H]1NC(=O)[C@H]([C@@H](C)O)NC(=O)[C@H](CCCCN)NC(=O)[C@@H]2CCCN2C(=O)[C@H]([C@@H](C)O)NC(=O)CNC(=O)[C@H](CC(=O)O)NC(=O)CNC(=O)[C@H]([C@@H](C)O)NC(=O)[C@H](Cc2ccccc2)NC(=O)[C@H]([C@@H](C)O)NC(=O)[C@H]([C@@H](C)O)NC(=O)[C@H](CCC(=O)O)NC(=O)[C@H](CC(C)C)NC(=O)[C@H](Cc2c[nH]cn2)NC(=O)[C@H]([C@@H](C)O)NC(=O)[C@H](CCC(N)=O)NC(=O)CNC(=O)[C@H]2CCCN2C(=O)[C@H](CCC(N)=O)NC(=O)[C@H]([C@@H](C)O)NC(=O)[C@H](C)NC(=O)[C@H](CCCNC(=N)N)NC1=O [compound 72] (cyclo(THLETTFTGDGTPKTIRATQ[dP]GQ)) | 0.09 | – | 1.49
